Patent publication US8481600B2, “Formulation of aspirin that is stable and showing minimal hydrolysis for parenteral administration for the treatment of cardiovascular and other disease states” (Academic Pharmaceuticals, Inc., priority 2007, dated 2013)
“And” between values parts separate entries of the source, which are not always exact repeats. Identical values can stand only once.

Key:
[1] = HPLC analysis of ASA solutions for hydrolysis to salicylic acid (stability on storage); format: physicochemical
Experimental: (§1) A 10 μl solution of this formulation is tested using the following HPLC procedure for analysis. A constant-flow pump, Thermo-Finnigan Spectra-System P2000 was used to deliver eluent solvent at a rate of 1 ml/min to a column, Luna, 5μ, C8(2), 100 A, […] (Phenomenex, Calif.). The eluent solvent system was NaH2PO4 (0.025 M): Na2HPO4 (0.25 M): MeOH (25:25:50 V/V) pH adjusted to 3.2 with either phosphoric acid or concentrated HCL. Methanolic solutions of aspirin and salicylic acid 10 μl (concentration of 1 mg/ml) were injected onto the column. The eluted compounds were detected using a Spectra 200 programmable UV wavelength detector and Thermo-Finnigan Chrome Jet integrator. The wavelength of detector was either […]. Under these conditions, retention times for aspirin and hydrolysis product, salicylic acid was approximately 1.75 minutes and 3.34 minutes respectively. […]

[2] = Solution compatibility: NNDMA solution of ASA diluted with diluents, HPLC; format: physicochemical; settings: for Assay of Compounds: Aspirin / Assay of Compounds: Salicylic Acid: ASA in NNDMA diluted with D5W, RT
Experimental: In another series of experiments, 1 ml of the solution containing only NNDMA (Table 3) was diluted with 100 ml of diluents such as 1. distilled H2O, 2. Ringers lactate solution, 3. D5W and 4. normal saline and then the pH of these solutions were adjusted to 6.5 with 1 N NaOH. […] After 12 hours of storage, however, the hydrolysis of ASA was observed (up to 5% within 24 hours). […] One skilled in the art will recognize that modifications may be made in the persent invention without deviating from the spirit or scope of this invention which is illustrated further by the specific examples of dissolution attempts described herein and these examples are not to be construed as limiting the scope of this invention.
as §1

[3] = 25° C.; cited from earlier work
[4] = a. H2O (2.0 ml), 1-Propanol (0.5 ml), Tween 20 (0.5 ml), within 1 hr
[5] = aspirin dissolved in water (2 ml), upon mixing (FIG. 1)
[6] = glycerin (1 ml), 1-propanol (3 ml), Tween 80 (0.2 ml), upon mixing (FIG. 2)
[7] = 1 ml NNDMA solution diluted in D5W, after 12 hours (FIG. 6)

## CC(=O)Oc1ccccc1C(=O)O [ASA, aspirin]
[1]; 1. N,N-Dimethylacetamide (NNDMA)
  Purity of ASA in solution: >99%
[1]; 2. NNDMA, Glycerol (0.1 in 10 ml), Tween 20 (0.1 in 10 ml)
  Purity of ASA in solution: Purity >99%
[1]; 3. NNDMA, Glycerol (0.1 in 10 ml), Tween 40 (0.1 in 10 ml)
  Purity of ASA in solution: Purity >99%
[1]; 4. NNDMA, Glycerol (0.1 in 10 ml), Tween 60 (0.1 in 10 ml)
  Purity of ASA in solution: Purity >99%
[1]; 5. NNDMA, Glycerol (0.1 in 10 ml), Tween 80 (0.1 in 10 ml)
  Purity of ASA in solution: Purity >99%
[1]; 6. NNDMA, Glycerol (0.1 in 10 ml)
  Purity of ASA in solution: Purity >99%
[1]; 7. NNDMA, Glycerol (0.1 in 10 ml), DMSO (1-2%)
  Purity of ASA in solution: Purity >99%
[1]; 8. NNDMA, DMSO (1.2%)
  Purity of ASA in solution: Purity >99%
[1]; ASA in NNDMA, 40° C., 6 months
  Aspirin (HPLC purity): 97.5% and 97.9%-98.6%
[1]; ASA in NNDMA, 40° C., 6 months, listed as aspirin
  Aspirin (HPLC purity): 98%
[1]; ASA in NNDMA, RT, 6 months
  Aspirin (HPLC purity): 99.4%
  Salicylic Acid / hydrolysis product: 0.3%
[1]; Example 1: 1.0 gm of aspirin in 2 mL NNDMA
  stability of solution of ASA in NNDMA: stable and resists hydrolysis
[1]; NNDMA solutions of Table 3, pH adjusted in the range of 1.5-6.0
  solution stability on pH adjustment: without changing solution stability
[1]; NNDMA, glycerol and Tween 20, RT, 6 months (FIG. 5)
  aspirin purity (HPLC): 99%
[1]; [4]
  HPLC Results: aspirin: ~95% aspirin
  HPLC Results: salicylic acid: ~5%
[1]; all 8 NNDMA solutions of Table 3, room temperature, 6 months
  amount of aspirin present: greater than 98%
[1]; all 8 NNDMA solutions of Table 3, stored at room temperature
  hydrolysis on storage: no significant amount of hydrolysis could be detected
[1]; [5]
  aspirin, HPLC peak 1 area: 95.4%
  hydrolysis product, HPLC peak 2: 4.9%
[1]; b. H2O (2.0 ml), 1-Propanol (0.5 ml), Tween 40, within 1 hr
  HPLC Results: salicylic acid: ~5%
[1]; c. H2O (2.0 ml), 1-Propanol (0.5 ml), Tween 60, within 1 hr
  HPLC Results: salicylic acid: ~5%
[1]; d. H2O (2.0 ml), 1-Propanol (0.5 ml), Tween 80, within 1 hr
  HPLC Results: salicylic acid: ~5%
[1]; e. H2O (2.0 ml), 1-Propanol (0.5 ml), PEG 300, within 1 hr
  HPLC Results: salicylic acid: ~5%
[1]; f. H2O (2.0 ml), 1-Propanol (0.5 ml), PEG 400, within 1 hr
  HPLC Results: salicylic acid: ~5%
[1]; g. H2O (2.0 ml), 1-Propanol (0.5 ml), PEG 600, within 1 hr
  HPLC Results: salicylic acid: ~5%
[1]; [6]
  aspirin, HPLC peak 1: 94.3%
  hydrolysis product, HPLC peak 2: 5.7%
[1]; h. H2O (2.0 ml), 1-Propanol (0.5 ml), Glycerol, within 1 hr
  HPLC Results: salicylic acid: ~5%
[1]; i. H2O (2 ml), +DMSO (1-2%), Tween 20, within 1 hr
  HPLC Results: salicylic acid: ~5%
[1]; j. H2O (2 ml), +DMSO (1-2%), Tween 40, within 1 hr
  HPLC Results: salicylic acid: ~5%
[1]; k. H2O (2 ml), +DMSO (1-2%), Tween 60, within 1 hr
  HPLC Results: salicylic acid: ~5%
[1]; l. H2O (2 ml), +DMSO (1-2%), Tween 80, within 1 hr
  HPLC Results: salicylic acid: ~5%
[1]; m. Glycerine (1 ml), 1-Propanol (3 ml), Tween 80 (0.2 ml), within 1 hr
  HPLC Results: salicylic acid: ~5%
[1]; n. Glycerine (1 ml), 1,2 propanediol (3 ml), Tween 80 (0.2 ml), within 1 hr
  HPLC Results: salicylic acid: ~5%
[1]; o. Glycerine (1 ml), PEG 300 (3 ml), Tween 80 (0.2 ml), within 1 hr
  HPLC Results: salicylic acid: ~5%
[1]; p. Glycerine (1 ml), PEG 400 (3 ml), Tween 80 (0.2 ml), within 1 hr
  HPLC Results: salicylic acid: ~5%
[1]; q. Glycerine (1 ml), PEG 600 (3 ml), Tween 80 (0.2 ml), within 1 hr
  HPLC Results: salicylic acid: ~5%
[1]; room temperature and 40° C., 6 months
  stability of clear solutions in NNDMA on storage: without the formation of turbidity or a precipitate and without significant hydrolysis of aspirin
[1]; the 17 solvent systems of Table 2, within one hour, aspirin 50-75 mg/ml, pH 1.5 to 6.8
  salicylic acid (hydrolysis product) in solutions of ASA: ≥ 5%
[1]; up to 500 mg/ml, stored at 40° C. for up to 6 months
  stability in N,N-dimethylacetamide: without undergoing significant hydrolysis
[2]; [7]
  HPLC peak 2: 0.3%
  HPLC peak 3: 0.4%
[2]; 1 ml NNDMA solution diluted in distilled water and glucose (D5W), after 12 hours (FIG. 6)
  aspirin purity, HPLC peak 1: 95% and 94.8%
[2]; 1 ml NNDMA solution in 100 ml distilled H2O, Ringers lactate, D5W or normal saline, pH 6.5, after several days
  appearance of diluted solutions: remained clear
[2]; 1 ml NNDMA solution in 100 ml distilled H2O, Ringers lactate, D5W or normal saline, pH 6.5, up to 12 hours of storage
  hydrolysis of ASA: < 1%
[2]; 1 ml NNDMA solution in 100 ml distilled H2O, Ringers lactate, D5W or normal saline, pH 6.5, within 24 hours
  hydrolysis of ASA: up to 5%
[2]; up to 12 hours
  Assay of Compounds: Aspirin: >99%
  Assay of Compounds: Salicylic Acid: <1%
[2]; up to 24 hours
  Assay of Compounds: Aspirin: 94.7-95.3%
  Assay of Compounds: Salicylic Acid: Max. ~6%
[3]
  solubility in water: poor solubility
